Four molecules from patent US5220002A, “Deacetylcolchicine derivatives” (Ohgen Research Laboratories, Ltd., priority 1990, dated 1993) can be followed below.

Values after ≈ are worked out from the molar mass of the structure shown.

In data set [1] the test system is Adriamycin-resistant mouse leukemic cells P388/ADR. In words: In vitro tumor cell proliferation inhibiting test (Adriamycin-resistant mouse leukemic cells P388/ADR). In kind it is cell-based. Particulars: 48 h, 2×10^5, RPMI 1640 with 10% bovine fetal serum, 2 days, read-out: 50% proliferation inhibitory concentration: IC50. Here is the method:
2×10^5 Adriamycin-resistant mouse leukemic cells P388/ADR are suspended in a RPMI 1640 culture medium containing 10% of a bovine fetal serum, and cultured for 2 days in the presence of a test compound (the test compound is dissolved in dimethyl sulfoxide such that the concentration becomes 1 mg/ml, and this is diluted with a phosphate buffer solution). An influence on cell proliferation is investigated, and 50% proliferation inhibitory concentration: IC50 value (μg/ml) is determined.

For data set [2], the system named is Sarcoma 180 ascites tumor. In words: In vivo test on Sarcoma 180 ascites tumor transplanted mice. More on the design: species or system mouse (ddY male). The conditions noted are these: once a day over 7 days; for Average number of survival days (mean ± SD): 6 mice per group; for Cured example: groups of 6 mice. The method, then:
1×10^6 Sarcoma 180 cells are transplanted in an abdominal cavity of each of 6-week old ddY male mice. Over 7 days after the first day of transplantation of tumor cells in groups each consisting of 6 mice, the test compound (which is dissolved in propyplene glycol and diluted with a phosphate buffer solution such that the final concentration of propylene glycol becomes 20% or less) is administered in the abdominal cavity once a day, and an average number of survival days and percent prolongation* are measured. [formula]

Another data set relates to Sarcoma 180 solid tumor. The data set can be described thus: In vivo test on Sarcoma 180 solid tumor transplanted mice. On the set-up: species or system mouse (ddY female). Particulars: for Average tumor weight (mean ± SD, g): once a day over 10 days from 6th day, tumor taken out 30 days after transplantation; for Percent inhibition: tumor weight, 30 days after transplantation. Here is the method: 2×10^6 Sarcoma 180 cells are transplanted subcutaneously in the back of each of 6-week old ddY female mice. Over 10 days from the 6th day after the tumor transplantation in groups each consisting of 6 mices, the test compound (which is dissolved in propylene glycol and diluted with a phosphate buffer solution such that the final concentration of propylene glycol becomes 20% or less) is continuously administered in the abdominal cavity once a day. Thirty days after the tumor transplantation, the tumor is taken out. Its weight is measured, and an average tumor weight and percent inhibition* are measured. [formula]

A further data set is described as follows: Acute toxicity test. More on the design: species or system mouse (ddY male). Particulars: mouse, in vivo, mortality for 1 week, Litchfield-Wilcoxon method. Here is the method:
The test compound is administered to each 5-week old ddY male mouse, and mortality is observed for 1 week. A 50% lethal dose (LD50) is calculated from the number of mice died in each group by a Litchfield-Wilcoxon method. The test compound (compound (a)) is suspended in 10% propylene glycol. Ten dilution gradients are prepared from the maximum concentration 80 mg/kg at a ratio of 1.2, and the test is carried out.

For `COc1cc2c(c(OC)c1OC)-c1ccc(OC)c(=O)cc1C(NC(=O)[C@@H]1COC(C)(C)O1)CC2` (stereo partly shown) [Compound 1a, Deacetylcolchicine-glyceric Acid Acetonideamide], in data set [1], the IC50 came out at 0.036 µg/mL (≈ 0.0741 µM). The Percent prolongation in data set [2] (0.31 mg/kg i.p.) was determined as 188%; in data set [2] (0.63 mg/kg i.p.) it was 281%; in data set [2] (1.25 mg/kg i.p.), 277%; in data set [2] (2.5 mg/kg i.p.) it was 333%. Further, the “Average number of survival days (mean ± SD)” value (“Average number … (mean ± SD)” below) worked out at 36.0 ± 8.0 days in data set [2] (0.31 mg/kg i.p.), 47.7 ± 11.1 days in data set [2] (0.63 mg/kg i.p.), 47.2 ± 11.5 days in data set [2] (1.25 mg/kg i.p.) and 54.2 ± 11.6 days in data set [2] (2.5 mg/kg i.p.). For the same molecule, the Cured example in data set [2] (0.63 mg/kg i.p.) is recorded as 1; in data set [2] (1.25 mg/kg i.p.) it was 2; in data set [2] (2.5 mg/kg i.p.), 4. Further, the “Average tumor weight (mean ± SD, g)” value with Sarcoma 180 solid tumor (0.625 μg/kg i.p.) turned out to be 0.71 ± 0.38 g; in the data set on Sarcoma 180 solid tumor (1.25 μg/kg i.p.) it was 0.88 ± 0.78 g; with Sarcoma 180 solid tumor (2.5 μg/kg i.p.) it was 0.63 ± 0.51 g; with Sarcoma 180 solid tumor (5.0 μg/kg i.p.), 0.60 ± 0.52 g. Moreover, the Percent inhibition with Sarcoma 180 solid tumor (0.625 μg/kg i.p.) is 49.6%; in the data set with Sarcoma 180 solid tumor (1.25 μg/kg i.p.) it was 47.6%; in the data set on Sarcoma 180 solid tumor (2.5 μg/kg i.p.), 55.3%; in the data set on Sarcoma 180 solid tumor (5.0 μg/kg i.p.), 57.4%. Further, the LD50 (as a rule, the dose expected to kill half of the subjects tested) at 168 h amounted to 42 mg/kg in the data set “Acute toxicity test” (ip, intraperitoneal) and 38 mg/kg in the data set “Acute toxicity test” (intravenous).
Turning to `COc1cc2c(c(OC)c1OC)-c1ccc(OC)c(=O)cc1C(NC(=O)[C@H]1COC(C)(C)O1)CC2` (stereo partly shown) [Compound 1b, Deacetylcolchicine-glyceric Acid Acetonideamide], in data set [1], the IC50 was 0.066 µg/mL (≈ 0.136 µM). In data set [2] (1.25 mg/kg i.p.), the Percent prolongation is 240%, the “Average number … (mean ± SD)” value is on record as 42.5 ± 15.4 days and the Cured example stood at 1. Further, in data set [2] (2.5 mg/kg i.p.), the Percent prolongation was 356%, the “Average number … (mean ± SD)” value was 57.0 ± 7.3 days and the Cured example came out at 5. In data set [2] (5 mg/kg i.p.), the Percent prolongation came out at 356%, the “Average number … (mean ± SD)” value came out at 57.0 ± 5.3 days and the Cured example came out at 4.
Consider `COc1cc2c(c(OC)c1OC)-c1ccc(OC)c(=O)cc1C(NC(=O)[C@H]1O[C@H](OC(C)=O)[C@H](O)[C@@H](O)[C@@H]1OC(C)=O)CC2` (stereo partly shown) [Compound 4, Deacetylcolchicine-glucuronic acid diacetateamide], for which, in data set [1], the IC50 turned out to be 0.034 µg/mL.
For the molecule `COc1cc2c(c(OC)c1OC)-c1ccc(OC)c(=O)cc1C(NC(=O)[C@H]1O[C@H](O)[C@H](O)[C@@H](O)[C@@H]1O)CC2` (stereo partly shown) [Compound 5, N-(5,6,7,9-tetrahydro-1,2,3,10-tetramethoxy-9-oxobenzo[a]heptalen-7-yl)glucuroneamide], the IC50 in data set [1] amounted to 0.037 µg/mL (≈ 0.0693 µM).
